Measured values as given in publication PMC6620467, “Gram-scale synthesis of FICZ, a photoreactive endogenous ligand of the aryl hydrocarbon receptor” (Scientific Reports, 2019).
Where two headings read alike, the source gives them in different places.

Experiments:
human AhR = target: T1, human AhR (Homo sapiens, UniProt P35869); assay: cyp1a1 promoter β-lactamase reporter gene assay for AhR activation (CYP1A1-bla-LS180 cells)
T1 sequence (P35869 11-848): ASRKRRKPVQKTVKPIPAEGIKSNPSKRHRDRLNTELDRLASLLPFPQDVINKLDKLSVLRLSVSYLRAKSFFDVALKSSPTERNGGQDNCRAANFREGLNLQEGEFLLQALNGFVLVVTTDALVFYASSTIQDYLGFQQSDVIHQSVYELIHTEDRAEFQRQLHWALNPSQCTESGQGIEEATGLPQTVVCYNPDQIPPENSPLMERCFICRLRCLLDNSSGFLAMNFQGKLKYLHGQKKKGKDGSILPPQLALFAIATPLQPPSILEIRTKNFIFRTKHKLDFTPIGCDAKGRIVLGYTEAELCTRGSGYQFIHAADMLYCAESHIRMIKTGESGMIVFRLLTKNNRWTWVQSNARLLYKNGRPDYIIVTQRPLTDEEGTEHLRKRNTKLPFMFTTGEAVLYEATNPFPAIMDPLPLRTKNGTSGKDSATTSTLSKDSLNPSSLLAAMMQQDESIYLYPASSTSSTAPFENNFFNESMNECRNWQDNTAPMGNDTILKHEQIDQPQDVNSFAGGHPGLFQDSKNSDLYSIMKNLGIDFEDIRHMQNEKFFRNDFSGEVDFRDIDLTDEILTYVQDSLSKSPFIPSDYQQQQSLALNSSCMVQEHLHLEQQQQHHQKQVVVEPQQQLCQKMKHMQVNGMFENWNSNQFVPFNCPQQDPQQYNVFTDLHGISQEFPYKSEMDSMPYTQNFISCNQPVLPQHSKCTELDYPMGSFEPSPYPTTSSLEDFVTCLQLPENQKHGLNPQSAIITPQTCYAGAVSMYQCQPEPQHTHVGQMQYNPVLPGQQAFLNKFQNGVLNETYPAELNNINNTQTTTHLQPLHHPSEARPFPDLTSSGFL
Text: We employed a commercially available assay for AhR ligands in which a cell line had been engineered to express a reporter gene composed of the cyp1a1 promoter driving expression of a β-lactamase reporter. AhR ligands were detected by the increased expression of β-lactamase, which was quantified using a fluorescent substrate (see Materials and methods).
Intestinal human colon adenocarcinoma LS180 cells stably transfected with a β-lactamase reporter gene downstream of the cyp1a1 promoter were obtained from Invitrogen (catalog number K1678) and were used in accordance with the protocol described at https://www.thermofisher.com/document-connect/document-connect.html?url=https%3A%2F%2Fassets.thermofisher.com%2FTFS-Assets%2FLSG%2Fmanuals%2Fgeneblazer_cyp1a1blals0180_man.pdf, but adapted to run in 384-well plates.
CYP1A1-bla-LS180 cells (Invitrogen, catalog number K1678) were suspended in assay media (OptiMEM, 1% charcoal stripped serum, 1 mM sodium pyruvate, 0.1 mM NEAA) at a density of 20000 cells/mL. The compounds were dissolved in DMSO at a concentration of 10 mM. 0.5 mL of the compound solutions were added to a 384-well black, clear bottom, cell-coat assay plate (Griener Bio-one). […] A 50 μL aliquot of cell suspension was added to each well, and the compound plate was incubated overnight at 37 °C in 5% CO2. The plate was equilibrated at room temperature for 30 min before adding 10 μL of the LiveBLAzer™ FRET B/G substrate solution (Life Technologies) to each well. The plate was incubated for 90 min at room temperature in the dark before being read on a Perkin Elmer Envision using the bottom read fluorescence program with excitation at 400 nm and detection at 460/535 nm.

[1] = Photostability test of DMSO-d6 solutions by 1H NMR (maleic acid internal reference); assay type: physicochemical
Experimental: Maleic acid was employed as an internal NMR reference.
The solution was analyzed by ^1H NMR as time point zero. 0.5 mL of the solution was placed into separate ICH 20 mL Flint clear glass bottles that were irradiated in a photostability chamber with illuminance set to 11000 lux as measured by a digital light meter. The contents of separate bottles were checked by ^1H NMR at 1 h, 2 h, 3 h, 4 h, 5 h, 7 h, 10 h, 16 h, and 24 h. […] A parallel experiment was run under the same conditions with ICZ (12.4 mg) and maleic acid (6.4 mg) in 5.1 mL of DMSO-d6 and stability data collected at 1 h, 2 h, 4 h, 6 h, 12 h, 18 h, and 24 h.
The solution was analyzed by ^1H NMR as time point zero. 0.5 mL of the solution was placed into separate ICH 20 mL Flint clear glass bottles that were placed in direct sunlight with illuminance of 63000 lux as measured by a digital light meter (from 1:00 PM to 3:40 PM on March 17, 2015, a sunny day with minimal clouds in Durham, NC, USA). The contents of separate bottles were checked by ^1H NMR at 1.5 min, 3 min, 10 min, 30 min, and 93 min.
The solution was analyzed by NMR as time point zero. The solution was then divided into four ICH 20 ml Flint clear glass bottles: Bottle A was exposed to air and was unprotected from the bright light; Bottle B: was flushed with nitrogen and left unprotected from the bright light; Bottle C was exposed to air but covered by aluminum-foil; and Bottle D was flushed with nitrogen and covered by aluminum foil. All bottles were placed in a photostability chamber with illuminance set to 11100 lux. The contents of each bottle were checked by ^1H NMR at 1 d, 4 d, 8 d, 14 d and 21 d using the quantification procedure described in Method 1.

With `O=C(O)c1c2[nH]c3ccccc3c2cc2[nH]c3ccccc3c12` [CICZ (9), 5,11-Dihydroindolo[3,2-b]carbazole-6-carboxylic acid] the EC50 (human AhR) was 0.4 ± 0.1 µM and the “potency as AhR agonist relative to FICZ (1), times less potent” value (human AhR; cyp1a1 reporter gene assay) was 40 times.

For `CCOC(=O)c1c2[nH]c3ccccc3c2cc2[nH]c3ccccc3c12` [Compound 10, Ethyl 5,11-dihydroindolo[3,2-b]carbazole-6-carboxylate], the EC50 (human AhR) was 0.16 ± 0.04 µM.

For `OCc1c2[nH]c3ccccc3c2cc2[nH]c3ccccc3c12` [Compound 11, (5,11-Dihydroindolo[3,2-b]carbazol-6-yl)methanol], the EC50 (human AhR) was 0.16 ± 0.09 µM.

In the case of `O=C1c2[nH]c3ccccc3c2C(=O)c2[nH]c3ccccc3c21` [Compound 13, Indolo[3,2-b]carbazole-6,12-dione], the EC50 (human AhR) is reported as 0.07 ± 0.015 µM and the “decrease in potency for activation of AhR versus FICZ (1)” value (human AhR; cyp1a1 reporter gene assay) is reported as “at least 7 fold”.

In the case of `O=Cc1c2[nH]c3ccccc3c2cc2[nH]c3ccccc3c12` [FICZ (1), 6-Formylindolo[3,2-b]carbazole], the “time to complete decomposition” value ([1]; Condition A: DMSO solution, bright light (11000 lux) and air) is reported as ≤ 1 days, the “decomposition, Condition C” value ([1]; DMSO solution, air, protected from light with aluminum foil, over 28 d) is reported as “further slowed, but did not prevent the decomposition” and the “decomposition, Condition B” value ([1]; DMSO solution, bottle flushed with nitrogen, 11000 lux light, over 28 d) is reported as “much slower”. The “decomposition, Condition D” value ([1]; DMSO solution, removal of air and protection from light, over 28 d) was “slowest rate of decomposition”, the half-life at 3 mg/mL ([1]; DMSO-d6 solution in clear Flint glass bottle, DMSO-d6 solution, air and light, 11000 lux, clear Flint bottle, read-out: half-life of decomposition (converted)) was ~3 h and the half-life at 2.125 mg/mL ([1]; DMSO-d6 solution in clear Flint glass bottle, DMSO-d6 solution, air, direct sunlight 63000 lux, read-out: half-life of decomposition) was ~0.5 h. For the same compound, the “stability as pure solid” value ([1]; pure solid) was “stable”.

With `c1ccc2c(c1)[nH]c1cc3c(cc12)[nH]c1ccccc13` [ICZ (12), reference compound] the EC50 (human AhR) was 0.03 ± 0.01 µM and the “decomposition rate relative to FICZ (1), times slower” value ([1]; DMSO-d6 solution, air and light, 11000 lux, identical conditions) was “at least 10 times”.

With `Clc1cc2c(cc1Cl)Oc1cc(Cl)c(Cl)cc1O2` [TCDD, reference compound] the EC50 (human AhR; read-out: EC50 of standard AhR ligand in cyp1a1 reporter assay, control experiments, data not shown) was 0.00031 µM.
